According to patent US6846934B2, “Photochromic diarylethene substituted with isoxazole group” (Korea Research Institute of Chemical Technology, priority 2001, dated 2005):

Tests used:
[1] = Dispersability of diarylethene compounds in polymer solution (photochromic thin film composition); format: physicochemical; parameters: key: ◯ = clear solution at RT; Δ = medium solubility; X = insoluble, phase separation and unclear solution; conditions: 10 wt. % diarylethene, chloroform + trichloroethylene, room temperature
Source text: Solubilities of diarylethene compounds of the present invention and known diarylethene compounds were compared by dispersing in polycarbonate (PC) solution or fluorinated polyethylene.
Compared diarylethene compounds are 1-(6′-(5-phenylisoxazol) 2′-methylbenzo[b]thiophen-3′-yl)-2-(2″-methylbenzo[b]thiophen-3′-yl)hexafluorocyclopentene (PIMBTF6) prepared in Example 4 and 1,2-bis(2-methylbenzo[b]thiophen-3′-yl)hexafluorocyclopentene (BTF6) and 1-(6′-acetyl-2′-methylbenzo[b]thiophen-3′-yl)-2-(2″-methylbenzo[b]thiophen-3′-yl)hexafluorocyclopentene (AMBTF6) which are disclosed. Each thin film composition was prepared by dissolving 0.03 g (10 wt. %) of diarylethene compound and 0.27 g (90 wt. %) of polycarbonate (PC) or fluorinated polyethylene in a mixture of 1.2 g of chloroform and 1.2 g of trichloroethylene and stirring at room temperature for 6 hrs.

[2] = Dispersability of diarylethene compounds in fluorinated diacrylate monomer (TFBDA) or THF; format: physicochemical; parameters: key: ◯ = clear solution at RT; Δ = medium solubility; X = insoluble, phase separation and unclear solution; conditions: room temperature
Method: Solubilities of diarylethene compounds of the present invention and known diarylethene compounds were compared by dispersing in fluorinated diacrylate monomer (TFBDA) or THF.
The same diarylethene compounds used in Examples 6-7 and Comparative Examples 1-4 are used to obtain the desired composition. Each thin film composition was prepared by dissolving 0.01 g (10 wt. %) of diarylethene compound and 0.002 g (2 wt. %) of 1-hydroxycyclohexyl phenyl ketone as photopolymerization initiator in 0.088 g (88 wt. %) of TFBDA and stirring at room temperature for 30 min.

[3] = 90 wt. % fluorinated polyethylene (Xeonex 480)

Compound | Dispersability [1, 3] | Dispersability ([1]; 90 wt. % polycarbonate (PC)) | Dispersability ([2]; 10 wt. % diarylethene in TFBDA) | Dispersability ([2]; solvent THF)
CC(=O)c1ccc2c(C3=C(c4c(C)sc5ccccc45)C(F)(F)C(F)(F)C3(F)F)c(C)sc2c1 [AMBTF6, 1-(6′-acetyl-2′-methylbenzo[b]thiophen-3′-yl)-2-(2″-methylbenzo[b]thiophen-3′-yl)hexafluorocyclopentene] | X | X | Δ | ◯
Cc1sc2ccccc2c1C1=C(c2c(C)sc3ccccc23)C(F)(F)C(F)(F)C1(F)F [BTF6, 1,2-bis(2-methylbenzo[b]thiophen-3′-yl)hexafluorocyclopentene] | X | ◯ | X | –
Cc1sc2cc(-c3cc(-c4ccccc4)on3)ccc2c1C1=C(c2c(C)sc3cc(-c4cc(-c5ccccc5)on4)ccc23)C(F)(F)C(F)(F)C1(F)F [DPIMBTF6, di(6′-phenylisoxazol-2′-methylbenzo[b]thiophen-3′-yl)hexafluorocyclopentene] | – | – | ◯ | –

Now from value to compound:

Dispersability [1, 3] | Dispersability ([1]; 90 wt. % polycarbonate (PC)) | Dispersability ([2]; 10 wt. % diarylethene in TFBDA) | Dispersability ([2]; solvent THF) | Compound
– | – | X | ◯ | Cc1sc2ccccc2c1C1=C(c2c(C)sc3cc(-c4cc(CO)on4)ccc23)C(F)(F)C(F)(F)C1(F)F [IMBTF6, 1-(6′-(5-hydroxymethylisoxazol)-2′-methylbenzo[b]thiophen-3′-yl)-2-(2″-methylbenzo[b]thiophen-3′-yl)hexafluorocyclopentene]
Δ | ◯ | ◯ | ◯ | Cc1sc2ccccc2c1C1=C(c2c(C)sc3cc(-c4cc(-c5ccccc5)on4)ccc23)C(F)(F)C(F)(F)C1(F)F [PIMBTF6, 1-(6′-(5-phenylisoxazol)-2′-methylbenzo[b]thiophen-3′-yl)-2-(2″-methylbenzo[b]thiophen-3′-yl)hexafluorocyclopentene]
